Entries after “also recorded” stand apart in the source; their conditions may differ.
What was measured:
SK-RC-52 xenografts [1] = test: Biodistribution of [111In]XYIMSR-01 and [177Lu]XYIMSR-01; format: in vivo, mice
Method: (§1) Cell Lines and Mouse Models. Animal experiments were performed in accordance with protocols approved by the Johns Hopkins Animal Care and Use Committee (ACUC). Six-week-old female NOD/SCID mice were purchased from the Animal Resource Core of the Sidney Kimmel Comprehensive Cancer Center of Johns Hopkins and were subcutaneously injected in the lower left flank or upper right flank with 1×10^6 SK-RC-52 cells in RPMI 1640 GlutaMAX™ media (Life Technologies, Frederick, Md.) supplemented with 1% fetal bovine serum (FBS). Mice were monitored for tumor size and used for SPECT/CT imaging when the size of the tumor reached 100 mm^3.
Biodistribution of [^111In]XYIMSR-01 and [^177Lu]XYIMSR-01. Mice bearing SK-RC-52 xenografts at lower left flank were injected intravenously with 740 kBq (20 μCi) of [^111In]XYIMSR-01, or [^177Lu]XYIMSR-01 in 200 μL of PBS. For competitive blocking, same tumor bearing mice were injected with 740 kBq (20 μCi) of [^111In]XYIMSR-01 and 200 nmole of 1 in 200 μL of PBS. At 1 h, 4 h, 8 h, 24 h and 48 h post-injection, mice were sacrificed by cervical dislocation and the blood was immediately collected by cardiac puncture. Heart, lungs, pancreas, spleen, fat, brain, muscle, small intestines, liver, stomach, kidney, urinary bladder, and tumor were collected. Each organ was weighed and the tissue radioactivity was measured with an automated gamma counter (1282 Compugamma CS, Pharmacia/LKBNuclear, Inc., Mt. Waverly, Vic. Australia). The percentage of injected dose per gram of tissue (% ID/g) was calculated by comparison with samples of a standard dilution of the initial dose. All measurements were corrected for radioactive decay.
Data were expressed as mean±standard deviation (SD). Prism software (GraphPAD, San Diego, Calif.) was used to determine statistical significance. Statistical significance was calculated using a paired t test. P-values […] were considered significant.

[2] = system: CAIX-expressing SK-RC-52 tumors; test: SPECT/CT imaging of [177Lu]XYIMSR-01; format: in vivo, mice; settings: intravenous
Method: as §1
SPECT/CT imaging of [^177Lu]XYIMSR-01. Mice were injected with 1.7 mCi of [^177Lu]XYIMSR-01 in 250 uL of PBS (pH7.0) intravenously, anesthetized under 3% isofluorane prior to being placed on the scanner bed and kept warm with an external light source while being scanned. Isofluorane levels were decreased to 1% throughout the scanning process in order to ensure mouse survival. Imaging of mice was then carried out using a CT-equipped Gamma Medica-Ideas SPECT scanner (Northridge, Calif.). A CT scan was performed at the end of each SPECT scan for anatomical co-registration. CT and SPECT scans were performed at 1, 4, 8, 24, and 48 hrs post injection of the [^177Lu]XYIMSR-01. Obtained data sets were subsequently reconstructed using the provided Gamma Medica-Ideas software. […]

CAIX = CAIX (Homo sapiens, UniProt Q16790); test: In vitro uptake of [177Lu]XYIMSR-01; format: cell-based; parameters: host or cells: ccRCC tumours in patients
SK-RC-52 xenografts [3] = test: Radio-therapy of [177Lu]XYIMSR-01, tumor growth; format: in vivo, mice; settings: 11.1 MBq (300 μCi) and 18.5 MBq (500 μCi) i.v., n=4
Method: as §1
Radio-therapy of [^177Lu]XYIMSR-01. Mice bearing SK-RC-52 xenografts at lower left flank were injected intravenously with PBS, 11.1 MBq (300 μCi) and 18.5 MBq (500 μCi) of [^177Lu]XYIMSR-01 in 200 μL of PBS (n=4). Size of the tumors was measured twice a week after the injection. […] The P-values were 0.042 and 0.031 for the 11.1 and […] doses, respectively.

[4] = 24 hr + Block (200 nmole of 1 co-injected)
[5] = 48 hr + Block (200 nmole of 1 co-injected)

Structure (SMILES): CC(CCC(=O)N[C@@H](CC(=O)N[C@@H](CC(=O)N[C@@H](CCCCn1cc(CCCC(=O)Nc2nnc(S(N)(=O)=O)s2)nn1)C(=O)NCCOCCOCCNC(=O)CN1CCN(CC(=O)[O-])CCN(CC(=O)[O-])CCN(CC(=O)[O-])CC1)C(=O)O)C(=O)O)(c1ccc(O)cc1)c1ccc(O)cc1.[177Lu+3] [[^177Lu]XYIMSR-01]
- Biodistribution: Small intestine (SK-RC-52 xenografts [1]; [4]): 0.18 ± 0.07 % ID/g
- Biodistribution: Spleen (SK-RC-52 xenografts [1]; [4]): 0.38 ± 0.32 % ID/g
- Biodistribution: Stomach (SK-RC-52 xenografts [1]; [4]): 0.21 ± 0.07 % ID/g
- Biodistribution: Tumor (SK-RC-52 xenografts [1]; [4]): 1.70 ± 0.79 % ID/g
- Tumor/Blood ratio (SK-RC-52 xenografts [1]; [4]): 42.0 ± 20.9
- Tumor/Kidney ratio (SK-RC-52 xenografts [1]; [4]): 1.4 ± 0.6
- Tumor/Muscle ratio (SK-RC-52 xenografts [1]; [4]): 58.6 ± 25.3
- Biodistribution: Bladder (SK-RC-52 xenografts [1]; 24 hr post-injection): 1.29 ± 1.10 % ID/g
- Biodistribution: Blood (SK-RC-52 xenografts [1]; 24 hr post-injection): 0.02 ± 0.01 % ID/g
- Biodistribution: Brain (SK-RC-52 xenografts [1]; 24 hr post-injection): 0.28 ± 0.10 % ID/g
- Biodistribution: Fat (SK-RC-52 xenografts [1]; 24 hr post-injection): 0.05 ± 0.04 % ID/g
- Biodistribution: Heart (SK-RC-52 xenografts [1]; 24 hr post-injection): 0.28 ± 0.14 % ID/g
- Biodistribution: Kidney (SK-RC-52 xenografts [1]; 24 hr post-injection): 3.11 ± 1.59 % ID/g
- Biodistribution: Liver (SK-RC-52 xenografts [1]; 24 hr post-injection): 0.47 ± 0.21 % ID/g
- Biodistribution: Lung (SK-RC-52 xenografts [1]; 24 hr post-injection): 1.48 ± 0.59 % ID/g
- Biodistribution: Muscle (SK-RC-52 xenografts [1]; 24 hr post-injection): 0.10 ± 0.05 % ID/g
- Biodistribution: Pancreas (SK-RC-52 xenografts [1]; 24 hr post-injection): 0.16 ± 0.07 % ID/g
- Biodistribution: Small intestine (SK-RC-52 xenografts [1]; 24 hr post-injection): 0.96 ± 0.32 % ID/g
- Biodistribution: Spleen (SK-RC-52 xenografts [1]; 24 hr post-injection): 0.20 ± 0.07 % ID/g
- Biodistribution: Stomach (SK-RC-52 xenografts [1]; 24 hr post-injection): 1.02 ± 0.56 % ID/g
- Biodistribution: Tumor (SK-RC-52 xenografts [1]; 24 hr post-injection): 12.51 ± 3.02 % ID/g
- Tumor/Blood ratio (SK-RC-52 xenografts [1]; 24 hr post-injection): 607.4±200.7
- Tumor/Kidney ratio (SK-RC-52 xenografts [1]; 24 hr post-injection): 4.5±1.4
- Tumor/Muscle ratio (SK-RC-52 xenografts [1]; 24 hr post-injection): 128.4±25.4
- Biodistribution: Bladder (SK-RC-52 xenografts [1]; [5]): 0.28 ± 0.09 % ID/g
- Biodistribution: Blood (SK-RC-52 xenografts [1]; [5]): 0.04 ± 0.07 % ID/g
- Biodistribution: Brain (SK-RC-52 xenografts [1]; [5]): 0.02 ± 0.00 % ID/g
- Biodistribution: Fat (SK-RC-52 xenografts [1]; [5]): 0.02 ± 0.01 % ID/g
- Biodistribution: Heart (SK-RC-52 xenografts [1]; [5]): 0.04 ± 0.01 % ID/g
- Biodistribution: Kidney (SK-RC-52 xenografts [1]; [5]): 0.39 ± 0.05 % ID/g
- Biodistribution: Liver (SK-RC-52 xenografts [1]; [5]): 0.23 ± 0.04 % ID/g
- Biodistribution: Lung (SK-RC-52 xenografts [1]; [5]): 0.18 ± 0.05 % ID/g
- Biodistribution: Muscle (SK-RC-52 xenografts [1]; [5]): 0.01 ± 0.00 % ID/g
- Biodistribution: Pancreas (SK-RC-52 xenografts [1]; [5]): 0.02 ± 0.00 % ID/g
- Biodistribution: Small intestine (SK-RC-52 xenografts [1]; [5]): 0.05 ± 0.01 % ID/g
- Biodistribution: Spleen (SK-RC-52 xenografts [1]; [5]): 0.15 ± 0.06 % ID/g
- Biodistribution: Stomach (SK-RC-52 xenografts [1]; [5]): 0.09 ± 0.02 % ID/g
- Biodistribution: Tumor (SK-RC-52 xenografts [1]; [5]): 0.65 ± 0.10 % ID/g
- Tumor/Blood ratio (SK-RC-52 xenografts [1]; [5]): 42.7 ± 23.7
- Tumor/Kidney ratio (SK-RC-52 xenografts [1]; [5]): 1.7 ± 0.3
- Tumor/Muscle ratio (SK-RC-52 xenografts [1]; [5]): 62.5 ± 34.5
- Biodistribution: Bladder (SK-RC-52 xenografts [1]; 48 hr post-injection): 0.20 ± 0.01 % ID/g
- Biodistribution: Blood (SK-RC-52 xenografts [1]; 48 hr post-injection): 0.04 ± 0.01 % ID/g
- Biodistribution: Brain (SK-RC-52 xenografts [1]; 48 hr post-injection): 0.17 ± 0.03 % ID/g
- Biodistribution: Fat (SK-RC-52 xenografts [1]; 48 hr post-injection): 0.03 ± 0.01 % ID/g
- Biodistribution: Heart (SK-RC-52 xenografts [1]; 48 hr post-injection): 0.12 ± 0.17 % ID/g
- Biodistribution: Kidney (SK-RC-52 xenografts [1]; 48 hr post-injection): 0.76 ± 0.11 % ID/g
- Biodistribution: Liver (SK-RC-52 xenografts [1]; 48 hr post-injection): 0.19 ± 0.03 % ID/g
- Biodistribution: Lung (SK-RC-52 xenografts [1]; 48 hr post-injection): 0.90 ± 0.05 % ID/g
- Biodistribution: Muscle (SK-RC-52 xenografts [1]; 48 hr post-injection): 0.04 ± 0.01 % ID/g
- Biodistribution: Pancreas (SK-RC-52 xenografts [1]; 48 hr post-injection): 0.06 ± 0.01 % ID/g
- Biodistribution: Small intestine (SK-RC-52 xenografts [1]; 48 hr post-injection): 0.20 ± 0.05 % ID/g
- Biodistribution: Spleen (SK-RC-52 xenografts [1]; 48 hr post-injection): 0.13 ± 0.04 % ID/g
- Biodistribution: Stomach (SK-RC-52 xenografts [1]; 48 hr post-injection): 0.35 ± 0.04 % ID/g
- Biodistribution: Tumor (SK-RC-52 xenografts [1]; 48 hr post-injection): 5.82 ± 2.14 % ID/g
- Tumor/Blood ratio (SK-RC-52 xenografts [1]; 48 hr post-injection): 200.2 ± 101.7
- Tumor/Kidney ratio (SK-RC-52 xenografts [1]; 48 hr post-injection): 7.1 ± 1.8
- Tumor/Muscle ratio (SK-RC-52 xenografts [1]; 48 hr post-injection): 141.5 ± 71.7
- SPECT/CT tumor imaging finding [2]: radiotracer uptake in tumor as early as 1 h post-injection; also recorded: tumor visualization by 1 h post-injection
- uptake in vitro (CAIX): CAIX specific uptake in vitro
- tumor growth compared with control non-treated mice (SK-RC-52 xenografts [3]): Delays in tumor growth; also recorded: significant therapeutic effect in controlling tumor growth

Source: patent publication US20190192699A1, “NUCLEAR IMAGING AND RADIOTHERAPEUTICS AGENTS TARGETING CARBONIC ANHYDRASE IX AND USES THEREOF” (THE JOHNS HOPKINS UNIVERSITY, priority 2016, published 2019)
